Earlier results as cited in paper PMC6311893, “Computational prediction of plasma protein binding of cyclic peptides from small molecule experimental data using sparse modeling techniques” (BMC Bioinformatics, 2018).

System: plasma protein
Settings: cited from earlier work

| Molecule | PPB (fb) |
| --- | --- |
| O=C(O)[C@H]1O[C@@H](Oc2cc3oc(-c4ccc(O)cc4)cc(=O)c3c(O)c2O)[C@H](O)[C@@H](O)[C@@H]1O [scutellarin] | 0.82 |

Same assay, conditions: fraction bound to plasma protein; small molecule dataset, sheet 1-SM (Set Dte = test, Dtr = training); ref Ingle et al.; cited from earlier work

| Molecule | PPB (fb) |
| --- | --- |
| O=C(O)c1cn(-c2ccccc2C(F)(F)F)c2cc(N3CCNCC3)c(F)cc2c1=O [3a(o-CF3)] | 0.38 |
| CCN1CCN(c2cc3c(cc2F)c(=O)c(C(=O)O)cn3-c2ccc(OC)cc2)CC1 [5cb (p-OCH3__N-C2H5)] | 0.51 |
| Nc1nc(=O)[nH]cc1F [Flucytosine] | 0.02 |
| COc1ccc(CCN2CCC(Nc3nc4ccccc4n3Cc3ccc(F)cc3)CC2)cc1 [astemizole] | 0.97 |
| C[C@H]1O[C@H](O[C@H]2[C@H](O)[C@@H](O)[C@@H](O[C@H]3[C@H](O)[C@@H](O)C(O)O[C@@H]3CO)O[C@@H]2CO)[C@H](O)[C@@H](O)[C@@H]1N[C@H]1C=C(CO)[C@@H](O)[C@H](O)[C@H]1O (some centres unmarked) [acarbose] | 0.15 |
| C=C1CC[C@H](O)C/C1=C/C=C1\CCC[C@]2(C)[C@@H]([C@H](C)CCCC(C)(C)O)CC[C@@H]12 [calcifediol] | 0.8 |
| O=C(O)c1cn(-c2ccc(F)cc2)c2cc(N3CCNCC3)c(F)cc2c1=O [2c(p-F)] | 0.31 |
| CC1(C)SC2C(NC(=O)C(N)c3ccc(Cl)c(Cl)c3)C(=O)N2C1C(=O)O (centres unmarked) [penicillin29] | 0.82 |
| CC(C)(Oc1ccc(Cl)cc1)C(=O)O [clofibric acid] | 0.98 |
| O=C(O)CN1C(=O)[C@@H](N[C@@H](CCc2ccccc2)C(=O)O)CCc2ccccc21 [Benazeprilat] | 0.95 |
| CN(C)CC/C=C1/c2ccccc2Sc2ccc(Cl)cc21 [chlorprothixene] | 0.99 |
| NS(=O)(=O)c1cc(-c2nnn[nH]2)c(NCc2cccs2)cc1Cl [azosemide] | 0.96 |
| NCCc1ccc(O)c(O)c1 [dopamine] | 0.1 |
| Cc1cn([C@H]2C[C@H](N=[N+]=[N-])[C@@H](CO)O2)c(=O)[nH]c1=O [Zidovudine] | 0.28 |
| CC[C@@]1(O)C(=O)OCc2c1cc1n(c2=O)Cc2cc3ccccc3nc2-1 [Camptothecin] | 0.98 |
| CCOC(=O)C(C)(C)Oc1ccc(Cl)cc1 [clofibrate] | 0.96 |
| CC1(C)SC2C(NC(=O)C(Cl)c3ccc(Cl)c(Cl)c3)C(=O)N2C1C(=O)O (centres unmarked) [penicillin25] | 0.97 |
| Cn1c(=O)c2c(ncn2CCCNCC(O)c2cc(O)cc(O)c2)n(C)c1=O (centres unmarked) [reproterol] | 0.5 |
| Cc1ccsc1C(=CCCN1CCC[C@@H](C(=O)O)C1)c1sccc1C [Tiagabine] | 0.96 |
| C[C@@](Cc1ccc(O)c(O)c1)(NN)C(=O)O [carbidopa] | 0.36 |
| CC(=O)[C@H]1CC[C@H]2[C@@H]3CCC4=CC(=O)CC[C@]4(C)[C@H]3CC[C@]12C [progesterone] | 0.97 |

Same assay, conditions: fraction bound to plasma protein; small molecule dataset, sheet 1-SM, Set Dtr; ref Ingle et al.; cited from earlier work

| Molecule | PPB (fb) |
| --- | --- |
| COC(=O)CCc1ccc(OCC(O)CNC(C)C)cc1 (centres unmarked) [Esmolol] | 0.48 |
| Cc1[nH]cnc1CN1CCc2c(c3ccccc3n2C)C1=O [Alosetron] | 0.72 |
| N=C(N)NC(=O)c1cnn(-c2cccc3ncccc23)c1C1CC1 [zoniporide] | 0.5 |
| O=C(NC1CCN(CCc2c[nH]c3ccccc23)CC1)c1ccccc1 [Indoramin] | 0.83 |
| CN1Cc2c(N)cccc2C(c2ccccc2)C1 (centres unmarked) [Nomifensine] | 0.63 |
| CN(C)/N=N/c1[nH]cnc1C(N)=O [Dacarbazine] | 0.02 |
| OCC(CO)N[C@H]1C[C@](O)(CO)[C@@H](O)[C@H](O)[C@H]1O [voglibose] | 0.14 |
| CN(Cc1cnc2nc(N)nc(N)c2n1)c1ccc(C(=O)N[C@@H](CCC(=O)O)C(=O)O)cc1 [Methotrexate] | 0.58 |
| C[C@@H](O)[C@H]1C(=O)N2C(C(=O)O)=C(S[C@@H]3CN[C@H](C(=O)Nc4cccc(C(=O)O)c4)C3)[C@H](C)[C@H]12 [Ertapenem] | 0.91 |
| CC1(C)S[C@@H]2[C@H](NC(=O)Cc3ccccc3)C(=O)N2[C@H]1C(=O)O [Penicillin G] | 0.62 |
| Nc1ncnc2c1ncn2CCOCP(=O)(O)O [Adefovir] | 0.04 |
| COc1nc(C)nc(Cl)c1N=C1NCCN1 [Moxonidine] | 0.06 |
| CC(=O)OCC1=C(C(=O)O)N2C(=O)[C@@H](NC(=O)Cc3cccs3)[C@H]2SC1 [Cephalothin] | 0.73 |
| Nc1nc(F)nc2c1ncn2[C@@H]1O[C@H](CO)[C@@H](O)[C@@H]1O [Fludarabine] | 0.12 |
| Nc1nc(O)c2ncn(COC(CO)CO)c2n1 [Ganciclovir] | 0.01 |
| CCCCCN(CCCOC)C(=O)[C@@H](CCC(=O)O)NC(=O)c1ccc(Cl)c(Cl)c1 [Dexloxiglumide] | 0.98 |

Same assay, conditions: fraction bound to plasma protein; small molecule dataset, sheet 1-SM; ref Ingle et al.; cited from earlier work

| Molecule | PPB (fb) |
| --- | --- |
| CN1C(=O)CC(C)(c2ccccc2)C1=O (centres unmarked) [mesuximide] | 0 |
| CN(C)CC/C=C1\c2ccccc2CSc2ccccc21 [dothiepin] | 0.85 |
| CC(C)OC(=O)C(C)(C)Oc1ccc(C(=O)c2ccc(Cl)cc2)cc1 [fenofibrate] | 0.99 |
| CCCCNc1ccc(C(=O)OCCN(C)C)cc1 [tetracaine] | 0.85 |
| CCOC(=O)[C@H](CCc1ccccc1)N[C@@H](C)C(=O)N1CCC[C@H]1C(=O)O [enalapril] | 0.55 |
| CC/C(=C(\c1ccccc1)c1ccc(OCCN(C)C)cc1)c1ccccc1 [tamoxifen] | 0.99 |
| Cc1ncc(CO)c(CO)c1O [pyridoxine] | 0 |
| Cc1cccc(Nc2ccncc2S(=O)(=O)NC(=O)NC(C)C)c1 [Torasemide] | 0.99 |
| Cc1cccc(C)c1NC(=O)C(C)N (centres unmarked) [Tocainide] | 0.13 |
| COc1ccc2c(c1)C(=O)N(CCc1ccc(S(=O)(=O)NC(=O)NC3CCCCC3)cc1)C(=O)C2(C)C [gliquidone] | 0.99 |
| CC1=C(CC(=O)O)c2cc(F)ccc2/C1=C\c1ccc([S+](C)[O-])cc1 (centres unmarked) [sulindac] | 0.93 |
| O=C(O)c1ccccc1O [salicylate] | 0.85 |
| CC(C)(O)C(=O)Nc1ccc([N+](=O)[O-])c(C(F)(F)F)c1 [hydroxyflutamide] | 0.93 |
| C[n+]1ccccc1/C=N/O [pralidoxime chloride] | 0.05 |
| CCCc1nc(C)c2c(=O)[nH]c(-c3cc(S(=O)(=O)N4CCN(CC)CC4)ccc3OCC)nn12 [Vardenafil] | 0.95 |
| C#C[C@]1(O)CC[C@H]2[C@@H]3CCc4cc(OC)ccc4[C@H]3CC[C@@]21C [mestranol] | 0.98 |
| COc1cc(NC(C)CCCN)c2ncccc2c1 (centres unmarked) [primaquine] | 0.8 |
| COCC(=O)NC1C(=O)N2C1SC(C)(C)C2C(=O)O (centres unmarked) [penicillin5] | 0.07 |
| C[C@]12CCC(=O)C=C1[C@@H]1C[C@@H]1[C@H]1[C@@H]3[C@@H]4C[C@@H]4[C@@]4(CCC(=O)O4)[C@@]3(C)CC[C@@H]12 [drospirenone] | 0.97 |
| Nc1ccc(S(=O)(=O)Nc2nccs2)cc1 [sulfathiazole] | 0.67 |
| Cc1cn[nH]c1 [fomepizole] | 0 |
| Clc1ccccc1CN1CCc2sccc2C1 [ticlopidine] | 0.96 |
| C#C[C@]1(O)CC[C@H]2[C@@H]3[C@H](C)CC4=C(CCC(=O)C4)[C@H]3CC[C@@]21C [tibolone] | 0.96 |
| C[C@@H]1C[C@H]2[C@@H]3C[C@H](F)C4=CC(=O)C=C[C@]4(C)[C@H]3[C@@H](O)C[C@]2(C)[C@H]1C(=O)CO [fluocortolone] | 0.9 |
| O=C(NCCO[N+](=O)[O-])c1cccnc1 [nicorandil] | 0.25 |

Same assay, conditions: plasma; cited from earlier work

| Molecule | PPB (fb) |
| --- | --- |
| COC(=O)C(c1ccccc1)C1CCCCN1 (centres unmarked) [Methylphenidate] | 0.18 |
| OC(O)C(Cl)(Cl)Cl [chloral-hydrate] | 0.35 |
| CN1CC[C@]23c4c5ccc(OCCN6CCOCC6)c4O[C@H]2[C@@H](O)C=C[C@H]3[C@H]1C5 [pholcodine] | 0.24 |
| CO [methanol] | 0 |
| O=C1CN=C(c2ccccc2)c2cc([N+](=O)[O-])ccc2N1 [Nitrazepam] | 0.87 |
| C[C@@H]1O[C@@H](O[C@@H]2C=C3CC[C@@H]4[C@H](CC[C@]5(C)[C@@H](c6ccc(=O)oc6)CC[C@]45O)[C@@]3(C)CC2)[C@H](O)[C@H](O)[C@H]1O [proscillaridin] | 0.85 |
| Cc1ncsc1CCCl [Chlormethiazole] | 0.64 |
| Oc1cc(O)c2c(c1)O[C@H](c1ccc(O)c(O)c1)[C@H](O)[C@H]2c1c(O)cc(O)c2c1O[C@H](c1ccc(O)c(O)c1)[C@@H](O)C2 [procyanidin B1] | 0.73 |
| CCCC(C)C1(CC)C(=O)NC(=O)NC1=O (centres unmarked) [Pentobarbital] | 0.56 |
| ethyl-biscoumacetate | 0.9 |
| Gabapentin | 0.02 |
| Cefoperazone | 0.92 |
| N[C@@H](Cc1ccc(N(CCCl)CCCl)cc1)C(=O)O [Melphalan] | 0.88 |
| nafarelin | 0.8 |
| O=C(O)C1N=C(c2ccccc2)c2cc(Cl)ccc2NC1=O (centres unmarked) [clorazepic acid] | 0.91 |
| O=C([O-])[O-].[Li+].[Li+] [Lithium Carbonate] | 0 |
| CCC1(c2cccc(O)c2)CCCCN(C)C1 (centres unmarked) [Meptazinol] | 0.27 |
| Felodipine | 1 |
| CCC1(O)CN2CCC1CC2C(O)c1ccnc2ccc(OC)cc12 (centres unmarked) [Hydroxydihydroquinidine] | 0.53 |
| CCC1(C2=CCCCC2)C(=O)NC(=O)NC1=O [cyclobarbital] | 0.7 |
| CNC1(c2ccccc2Cl)CCCCC1=O (centres unmarked) [Ketamine] | 0.44 |
| c1ccc(C2(N3CCCCC3)CCCCC2)cc1 [Phencyclidine] | 0.68 |
| C[C@H]1O[C@@H](O[C@H]2CC[C@@]3(C)[C@H](CC[C@@H]4[C@@H]3C[C@@H](O)[C@]3(C)[C@@H](C5=CC(=O)OC5)CC[C@]43O)C2)C[C@H](O)[C@@H]1O[C@H]1C[C@H](O)[C@H](O[C@H]2C[C@H](O)[C@H](O[C@@H]3O[C@H](CO)[C@@H](O)[C@H](O)[C@H]3O)[C@@H](C)O2)[C@@H](C)O1 [deslanoside] | 0.2 |
